Reference: patent US8282688B2, “Laccase mediators and methods of use” (Danisco US Inc., priority 2006, dated 2012)
Where “and” joins values, the source holds several entries; their conditions need not be identical. Equal entries are not always repeated.

Key:
C. unicolor laccase = assay: Stability of mediators in the presence of C. unicolor laccase, LC/MS of supernatant (Example 6); type: physicochemical; conditions: for Initial Peak Area / Final Peak Area: LC/MS; for Initial Peak Area: 1 mM standard solution of mediator; for Final Peak Area: supernatant after denim disk bleaching; for Final Peak Area / % Remaining: 2 hours at 50° C.; for % Remaining: supernatant after contact with laccase and denim
Protocol: Aliquots of supernatant were analyzed by LC/MS following the denim disk bleaching protocol described in Example 5 in order to determine the final mediator concentrations in the supernatant following the 2 hour incubation period.
Standard solutions of the mediators were prepared by dilution of the methanolic stock solutions (20 mM) into deionized water, such that the final concentrations were 1 mM respectively for each of the three mediators methyl syringate (MS), 4-cyano-2,6-dimethoxyphenol (SN) and, 4-carboxamido-2,6-dimethoxyphenol (SA). Samples were analyzed using a Thermo Finnegan Quantum TSQ LC/MS system (Thermo Finnegan, San Jose, Calif.) operating in positive electrospray ionization mode. The liquid chromatography conditions were as follows: • Column; Agilent Zorbax SB-Aq, 2.1 mm×100 mm, […] silica • Solvent A; 20 mM Ammonium formate, pH 5.0 • Solvent B; 90% Methanol+10% solvent A • Flow rate; 250 uL/min • Injection volume; 5 uL • Elution program; 70% solvent A from 0 to 1 minute, to 30% A from 3 to 4 minutes, back to 70% A at 4.5 minutes, held at 70% A until 8 minutes overall.
The Mass spectrometry conditions were as follows: • Positive mode electrospray ionization (+ve ESI) in full scan mode, scanning from 175 to 240 Da in 0.5 seconds. • Spray voltage was 4200V, sheath gas flow rate 41 mL/min, aux gas flow rate at 15 mL/min. Tube lens voltage was 109V and capillary temperature was 270° C.

[1] = test system: recombinant laccase D from C. unicolor; assay: Bleaching of denim swatches with recombinant C. unicolor laccase D (Example 5); type: biochemical; set-up: key to ΔE (total color difference) Denim swatch Backside / ΔE (total color difference) Denim swatch Frontside: CIE L*a*b* differences, initial minus final; ΔE=(ΔL²+Δa²+Δb²)^1/2
Protocol: Denim legs (made out of sulfur bottom/indigo dyed denim fabric from Cone Mill, style number 1662P) were pretreated with IndiAge® 2XL at a dose of 1 gram per liter in a 50 lb lab scale tumbling washer. The liquor ratio was 6 to 1 (5 kg substrate in 30 liters of water) and the treatment was performed at 55° C. at pH 4.5 for 1 hour. A warm rinse followed the cellulase treatment, after which the fabric was dried in a tumble dryer. A punch press was used to cut ⅝ inch denim disks from IndiAge® 2XL pretreated denim legs. Each denim disk is pre read with a Chroma Meter CR-200 by Minolta in order to determine the CIE L*a*b* values of both the front and backside of the fabric disk.
One denim disk is placed in each well of two duplicate 12 well micro-titer plates. Each well received C. unicolor laccase (20 uL of 1/20 dilution, approx. 20 ppm), mediator (200, 100, 50 or 20 uL of a 20 mM stock solution in methanol) and 50 mM potassium phosphate buffer, pH 6 for a total volume of 2 mL/well. The mediators were methyl syringate (MS), 4-cyano-2,6-dimethoxyphenol (SN) and 3,4,5-trimethoxyphenol (TMP). The plates were sealed and incubated at 50° C. for 2 hours at 150 rpm in a standard incubator. Following this period, the swatches were removed from the plates and carefully placed on a filter paper in a Buchner funnel and washed with copious amounts of water, followed by drying of the residual water under high vacuum overnight. The swatches were then re-read with the chromometer in order to determine the CIE L*a*b* values of both the front and backside of the disk following bleaching. The total color difference (ΔE) is calculated from the difference between the initial and final CIE L*a*b* values according to the formula ΔE=(ΔL^2+Δa^2+Δb^2)^1/2 The total color differences (ΔE) as a function of mediator concentration are plotted in FIGS. 5 and 6.
A denim swatch bleaching assay was performed as described in Example 16, in this instance, using a recombinant form of the laccase D protein derived from C. unicolor.
Two duplicate 12-well plates were loaded with denim disks. The laccase D stock solution (5.5 ABTS units per mL) was dosed at either 25 or 50 uL per well. The mediators used were methyl syringate (MS), 4-cyano-2,6-dimethoxyphenol (SN) and 4-carboxamido-2,6-dimethoxyphenol (SA) and were used at either 0.5 or 1 mM concentration. The results are depicted in FIGS. 7 and 8.

[2] = test system: Thielavia laccase (Ecostone LCC10); assay: Soluble indigo bleaching at two pH values, Thielavia laccase (Example 3); type: biochemical
Protocol: A saturated solution of indigo in N-methylpyrrolidone (NMP) was prepared by stirring indigo (30 mg) in NMP (10 ml) at room temperature for 5 hours. The NMP solution was diluted 10-fold into an aqueous buffer solution resulting in a blue solution. For example, dilution into 50 mM sodium acetate buffer at pH 5, or 50 mM sodium phosphate buffer at pH 7. Solutions were shaken well immediately before use.
The assay for the bleaching of the solubilized indigo substrate was performed in a 96-well microtitre plate whereby each well received the soluble indigo solution in 50 mM sodium acetate buffer at pH 5 (180 uL), laccase (10 ppm enzyme) and mediator solution (from a 20 mM stock solution in methanol). The total volume of each well was adjusted to 200 uL with deionzed water. A control containing laccase only was run in duplicate. The plate was sealed and incubated at 50° C. for 2 hours at 800 rpm on a heated agitator (Thermomixer, Eppendorf). Following this period, the plates were unsealed and a solution of ascorbic acid (20 uL of a 10% aqueous solution) added to each well in order to reduce the oxidized forms of the mediators. The extent of indigo bleaching was then assessed by determining the absorbance for each well at 600 nm using a microtitre plate reader. The lower the absorbance reading, the greater the extent of indigo bleaching.
Laccases derived from Myceliophtora (Denilite® II, Novozymes, Bagsvaerd, Denmark), Thielavia (Ecostone LCC10, AB enzymes, Darmstadt, Germany) and Cerrena sp. were assessed for their ability to bleach solubilized indigo in conjunction with low molecular weight mediators at two pH values.
Bleaching of solubilized indigo in 96-well microtitre plates was performed as described in Example 1, using 3 different laccases at pH values of 5 and 7.

[3] = mediator 0.5 mM, laccase D stock (5.5 U/mL) 25 uL
[4] = mediator 0.5 mM, laccase D stock (5.5 U/mL) 50 uL
[5] = mediator 1 mM, laccase D stock (5.5 U/mL) 25 uL
[6] = mediator 1 mM, laccase D stock (5.5 U/mL) 50 uL

## COc1cc(C(N)=O)cc(OC)c1O [SA, 4-carboxamido-2,6-dimethoxyphenol]
C. unicolor laccase
  Initial Peak Area: 122 × 10^7
  Final Peak Area: 0.94 × 10^7
  % Remaining: 7.8%
[1]; [3]
  ΔE (total color difference) Denim swatch Backside: 6.69 and 6.39
  ΔE (total color difference) Denim swatch Frontside: 5.07 and 5.70
  ΔL Denim swatch Backside: 4.94 and 4.93
  ΔL Denim swatch Frontside: 4.73 and 5.28
  Δb Denim swatch Backside: 4.51 and 4.05
  Δb Denim swatch Frontside: 1.16 and 1.47
[1]; [4]
  ΔE (total color difference) Denim swatch Backside: 6.15 and 6.71
  ΔE (total color difference) Denim swatch Frontside: 3.96 and 4.75
  ΔL Denim swatch Backside: 4.64 and 5.25
  ΔL Denim swatch Frontside: 3.66 and 4.46
  Δb Denim swatch Backside: 4.04 and 4.17
  Δb Denim swatch Frontside: 0.87 and 0.88
[1]; [5]
  ΔE (total color difference) Denim swatch Backside: 8.92 and 8.37
  ΔE (total color difference) Denim swatch Frontside: 7.55 and 7.70
  ΔL Denim swatch Backside: 7.02 and 6.53
  ΔL Denim swatch Frontside: 7.07 and 7.19
  Δb Denim swatch Backside: 5.51 and 5.22
  Δb Denim swatch Frontside: 1.76 and 1.68
[1]; [6]
  ΔE (total color difference) Denim swatch Backside: 8.72 and 9.16
  ΔE (total color difference) Denim swatch Frontside: 6.72 and 7.93
  ΔL Denim swatch Backside: 6.52 and 6.82
  ΔL Denim swatch Frontside: 6.23 and 7.37
  Δa Denim swatch Backside: 0.15 and 0.10
  Δb Denim swatch Backside: 5.79 and 6.12
  Δb Denim swatch Frontside: 1.73 and 2.11
[2]; pH 5, mediator 250 uM
  ΔA600 Thielavia: 0.170
[2]; pH 7, mediator 250 uM
  ΔA600 Thielavia: 0.162

## COc1cc(C#N)cc(OC)c1O [SN, 4-cyano-2,6-dimethoxyphenol]
C. unicolor laccase
  Initial Peak Area: 35.6 × 10^7
  Final Peak Area: 35.2 × 10^7
  % Remaining: 98.9%
[1]; [3]
  ΔE (total color difference) Denim swatch Backside: 11.62 and 11.54
  ΔE (total color difference) Denim swatch Frontside: 9.98 and 10.48
  ΔL Denim swatch Backside: 9.69 and 9.31
  ΔL Denim swatch Frontside: 9.23 and 9.73
  Δb Denim swatch Backside: 6.41 and 6.81
  Δb Denim swatch Frontside: 3.12 and 3.39
[1]; [4]
  ΔE (total color difference) Denim swatch Backside: 10.67 and 10.48
  ΔE (total color difference) Denim swatch Frontside: 8.70 and 9.31
  ΔL Denim swatch Backside: 8.87 and 8.45
  ΔL Denim swatch Frontside: 8.20 and 8.67
  Δa Denim swatch Backside: 0.26 and 0.33
  Δb Denim swatch Backside: 5.93 and 6.19
  Δb Denim swatch Frontside: 2.34 and 2.90
[1]; [5]
  ΔE (total color difference) Denim swatch Backside: 13.85 and 13.07
  ΔE (total color difference) Denim swatch Frontside: 13.24 and 13.88
  ΔL Denim swatch Backside: 11.36 and 10.64
  ΔL Denim swatch Frontside: 12.31 and 12.85
  Δb Denim swatch Backside: 7.93 and 7.59
  Δb Denim swatch Frontside: 4.36 and 4.85
[1]; [6]
  ΔE (total color difference) Denim swatch Backside: 14.05 and 14.15
  ΔE (total color difference) Denim swatch Frontside: 14.18 and 14.15
  ΔL Denim swatch Backside: 11.25 and 10.98
  ΔL Denim swatch Frontside: 12.98 and 12.85
  Δa Denim swatch Backside: 0.29 and 0.48
  Δb Denim swatch Backside: 8.41 and 8.91
  Δb Denim swatch Frontside: 5.33 and 5.50
[1]; recombinant laccase D, mediator 0.5 or 1 mM
  effectiveness as mediator for swatch bleaching: most effective mediator
